Earlier results, collected in PMC10401071 (Cancer Discovery, 2023).

System: WDLPS and DDLPS
Settings: patients with WDLPS and DDLPS; cited from earlier work

SMILES: COc1cccc2c1C(=O)c1c(O)c3c(c(O)c1C2=O)C[C@@](O)(C(=O)CO)C[C@@H]3O[C@H]1C[C@H](N)[C@H](O)[C@H](C)O1 [doxorubicin]
- overall survival: ~9 months
